Reference: patent US20230027075A1, “SULFONAMIDE COMPOUNDS TARGETING CD73 AND ADENOSINE RECEPTORS” (Aurigene Discovery Technologies Limited, priority 2019, published 2023)
pIC50: −log10 of the molar value.

Columns and labels:
[1] = target: T1, human-CD73 (Trp27-Lys547, His-tag) (Homo sapiens, UniProt P21589); assay: CD73 biochemical assay (colorimetric, Malachite Green phosphate detection); conditions: 2 nM CD73, 50 μM AMP; for inhibition at 20 µM: 20 μM compound, read-out: % inhibition at 20 μM (Percent inhibition data in CD73); for pIC50: four-parameter curve fit, read-out: Potency (IC50 values) of selected compounds in CD73, group
T1 construct: human-CD73 (Trp27-Lys547, His-tag); His-tag
T1 sequence (P21589 27-547): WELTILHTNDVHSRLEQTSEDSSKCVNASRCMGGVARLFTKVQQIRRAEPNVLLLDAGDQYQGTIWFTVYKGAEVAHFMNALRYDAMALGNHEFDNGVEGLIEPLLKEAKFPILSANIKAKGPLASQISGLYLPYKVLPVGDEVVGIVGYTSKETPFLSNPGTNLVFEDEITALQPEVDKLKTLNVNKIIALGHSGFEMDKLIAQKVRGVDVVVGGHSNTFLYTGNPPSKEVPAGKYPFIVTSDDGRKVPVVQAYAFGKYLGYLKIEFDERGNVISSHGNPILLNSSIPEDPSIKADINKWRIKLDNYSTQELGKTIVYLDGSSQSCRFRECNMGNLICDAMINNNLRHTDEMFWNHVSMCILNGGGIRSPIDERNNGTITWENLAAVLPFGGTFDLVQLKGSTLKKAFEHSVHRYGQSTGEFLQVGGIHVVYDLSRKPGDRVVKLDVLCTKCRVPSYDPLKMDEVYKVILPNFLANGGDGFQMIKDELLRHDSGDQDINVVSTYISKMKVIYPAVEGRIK
Protocol: A colorimetric-based method was used for assaying compounds of the invention for CD73 enzyme inhibitory activity. Human CD73 catalyzes the conversion of AMP to adenosine with the release of orthophosphate. A Malachite Green Phosphate Detection kit is used to measure the formation of orthophosphate product. […] A compound of the present invention and enzyme are incubated for 30 minutes at room temperature. Next, 20 μL of AMP in assay buffer is added to the plate. The final concentration of CD73 and AMP are 2 nM and 50 μM respectively. Following 30 minutes reaction at room temperature, 20 μL of Malachite reagent is added to all the reaction wells. The formation of green complex formed between Malachite Green, molybdate and free orthophosphate is measured on a plate reader (620 nm).

A2aR = target: T2, A2aR (Homo sapiens, UniProt P29274); assay: A2aR biochemical assay (TR-FRET binding, Tag-lite A2aR labelled cells, fluorescent antagonist); conditions: 10 nM fluorescent A2aR antagonist; for inhibition at 20 µM: read-out: % inhibition at 20 μM (Percent inhibition data in A2aR); for pIC50: four-parameter curve fit, read-out: Potency (IC50 values) of selected compounds in A2aR, group
T2 construct: expressed in transfected cells
Protocol: The compounds of present invention were assayed for A2aR enzyme binding activity in a TR-FRET based method. Typically, 10 μL of A2aR labelled cells in assay buffer (Tag-lite, 1×) is added to a 384-well plate containing 5 μL of a compound of present invention in final 1% DMSO, serially diluted in 1:5 in a 5-6 point titration. The aforesaid compound and cells are incubated for 30 minutes at room temperature. Next, 5 μL of A2aR antagonist (fluorescent ligand) in assay buffer is added to the plate. The final concentration of A2aR antagonist is 10 nM. Following 30 minutes reaction at room temperature, the plate was read on a plate reader (Ex: 340 nm Em: 615 nm and 665 nm) to measure the binding of test compound to A2aR cells. The results are interpreted as percentage inhibition as presented in Table-2A of binding by the test compound with respect to the DMSO control.

[2] = 20 μM compound, vs DMSO control

T2 sequence (P29274 whole entry): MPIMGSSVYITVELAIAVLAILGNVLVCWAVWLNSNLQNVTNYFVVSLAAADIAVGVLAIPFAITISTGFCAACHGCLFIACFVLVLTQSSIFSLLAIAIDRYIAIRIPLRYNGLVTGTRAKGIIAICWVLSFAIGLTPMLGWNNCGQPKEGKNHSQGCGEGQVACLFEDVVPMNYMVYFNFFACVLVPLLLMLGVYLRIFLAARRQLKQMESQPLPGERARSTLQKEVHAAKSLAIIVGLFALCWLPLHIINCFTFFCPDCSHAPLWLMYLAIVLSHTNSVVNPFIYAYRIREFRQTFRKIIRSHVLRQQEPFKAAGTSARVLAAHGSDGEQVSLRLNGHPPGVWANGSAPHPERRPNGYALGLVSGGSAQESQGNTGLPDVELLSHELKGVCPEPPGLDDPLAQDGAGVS

SMILES | inhibition at 20 µM [1] | pIC50 [1] | inhibition at 20 µM (A2aR; [2]) | pIC50 (A2aR) | % inhibition at 20 μM (Percent inhibition data in A2aR) (A2aR; [2])
NC(=O)c1cc(S(=O)(=O)Nc2cccc(CNc3nc(N)n4nc(-c5ccco5)nc4n3)c2)cc(Cl)c1O [Example A1, 5-(N-(3-(((7-amino-2-(furan-2-yl)-[1,2,4]triazolo[1,5-a][1,3,5]triazin-5-yl)amino)methyl)phenyl)sulfamoyl)-3-chloro-2-hydroxybenzamide] | 91% | < 6.00 | 78% | > 7.60 | 
CC(C)COC(=O)Nc1nc(NCCc2ccc(NS(=O)(=O)c3cc(Cl)c(O)c(C(N)=O)c3)cc2)nc2nc(-c3ccco3)nn12 [Example A9, Isobutyl (5-((4-((3-carbamoyl-5-chloro-4-hydroxyphenyl)sulfonamido)phenethyl)amino)-2-(furan-2-yl)-[1,2,4]triazolo[1,5-a][1,3,5]triazin-7-yl)carbamate] | 39% |  | 82% |  | 
Nc1nc(NCCc2ccc(NS(=O)(=O)c3ccc(O)c(C(F)(F)F)c3)cc2)nc2nc(-c3ccco3)nn12 [Example A10, N-(4-(2-((7-amino-2-(furan-2-yl)-[1,2,4]triazolo[1,5-a][1,3,5]triazin-5-yl)amino)ethyl)phenyl)-4-hydroxy-3-(trifluoromethyl)benzenesulfonamide] | 17% |  | 88% |  | 
NC(=O)c1cc(S(=O)(=O)Nc2ccc(CCCNc3nc(N)n4nc(-c5ccco5)nc4n3)c(O)c2)cc(Cl)c1O [Example A13, 5-(N-(4-(3-((7-amino-2-(furan-2-yl)-[1,2,4]triazolo[1,5-a][1,3,5]triazin-5-yl)amino)propyl)-3-hydroxyphenyl)sulfamoyl)-3-chloro-2-hydroxybenzamide] | 97% | > 7.00 | 83% | 7.30 to 7.60 | 
NC(=O)c1cc(S(=O)(=O)Nc2ccc(CCCNc3nc(N)n4nc(-c5ccco5)nc4n3)c(F)c2)cc(Cl)c1O [Example A14, 5-(N-(4-(3-((7-amino-2-(furan-2-yl)-[1,2,4]triazolo[1,5-a][1,3,5]triazin-5-yl)amino)propyl)-3-fluorophenyl)sulfamoyl)-3-chloro-2-hydroxybenzamide] | 94% | > 7.00 | 82% |  | 
NC(=O)c1cc(S(=O)(=O)Nc2ccc(CCCNc3nc(N)n4nc(-c5ccco5)nc4n3)cc2F)cc(Cl)c1O [Example A15, 5-(N-(4-(3-((7-amino-2-(furan-2-yl)-[1,2,4]triazolo[1,5-a][1,3,5]triazin-5-yl)amino)propyl)-2-fluorophenyl)sulfamoyl)-3-chloro-2-hydroxybenzamide] | 96% | 6.00 to 6.96 | 83% |  | 
NC(=O)c1cc(S(=O)(=O)Nc2ccc(CCCNc3cc(N)n4nc(-c5ccco5)nc4n3)cc2F)cc(Cl)c1O [Example A23, 5-(N-(4-(3-((7-amino-2-(furan-2-yl)-[1,2,4]triazolo[1,5-a]pyrimidin-5-yl)amino)propyl)-2-fluorophenyl)sulfamoyl)-3-chloro-2-hydroxybenzamide] |  |  | 78% | < 7.30 | 
NC(=O)c1cc(S(=O)(=O)Nc2cccc(NCCNc3nc(N)n4nc(-c5ccco5)nc4n3)c2)cc(Cl)c1O [Example C2, 5-(N-(3-((2-((7-amino-2-(furan-2-yl)-[1,2,4]triazolo[1,5-a][1,3,5]triazin-5-yl)amino)ethyl)amino)phenyl)sulfamoyl)-3-chloro-2-hydroxybenzamide] |  |  | 85% |  | 

The remaining lines, values ahead:

inhibition at 20 µM [1] | pIC50 [1] | inhibition at 20 µM (A2aR; [2]) | pIC50 (A2aR) | % inhibition at 20 μM (Percent inhibition data in A2aR) (A2aR; [2]) | SMILES
97% | 6.00 to 6.96 | 80% | < 7.30 |  | NC(=O)c1cc(S(=O)(=O)Nc2ccc(CNc3nc(N)n4nc(-c5ccco5)nc4n3)cc2)cc(Cl)c1O [Example A2, 5-(N-(4-(((7-amino-2-(furan-2-yl)-[1,2,4]triazolo[1,5-a][1,3,5]triazin-5-yl)amino)methyl)phenyl)sulfamoyl)-3-chloro-2-hydroxybenzamide]
96% | 6.00 to 6.96 | 83% | > 7.60 |  | NC(=O)c1cc(S(=O)(=O)Nc2ccc(CCNc3nc(N)n4nc(-c5ccco5)nc4n3)cc2)cc(Cl)c1O [Example A3, 5-(N-(4-(2-((7-amino-2-(furan-2-yl)-[1,2,4]triazolo[1,5-a][1,3,5]triazin-5-yl)amino)ethyl)phenyl)sulfamoyl)-3-chloro-2-hydroxybenzamide]
27% |  | 81% |  |  | Nc1nc(NCCc2ccc(NS(=O)(=O)c3cc(F)c(O)c(Cl)c3)cc2)nc2nc(-c3ccco3)nn12 [Example A4, N-(4-(2-((7-amino-2-(furan-2-yl)-[1,2,4]triazolo[1,5-a][1,3,5]triazin-5-yl)amino)ethyl)phenyl)-3-chloro-5-fluoro-4-hydroxybenzenesulfonamide]
99% | 6.00 to 6.96 | 84% | > 7.60 |  | NC(=O)c1cc(S(=O)(=O)Nc2ccc(CCNc3nc(N)n4nc(-c5ccco5)nc4n3)c(O)c2)cc(Cl)c1O [Example A5, 5-(N-(4-(2-((7-amino-2-(furan-2-yl)-[1,2,4]triazolo[1,5-a][1,3,5]triazin-5-yl)amino)ethyl)-3-hydroxyphenyl)sulfamoyl)-3-chloro-2-hydroxybenzamide]
98% | 6.00 to 6.96 | 79% |  |  | NC(=O)c1cc(S(=O)(=O)Nc2ccc(CCNc3nc(N)n4nc(-c5ccco5)nc4n3)c(F)c2)cc(Cl)c1O [Example A6, 5-(N-(4-(2-((7-amino-2-(furan-2-yl)-[1,2,4]triazolo[1,5-a][1,3,5]triazin-5-yl)amino)ethyl)-3-fluorophenyl)sulfamoyl)-3-chloro-2-hydroxybenzamide]
42% |  | 84% |  |  | NC(=O)c1cc(S(=O)(=O)Nc2ccc(CCNc3nc(N)n4nc(-c5ccco5)nc4n3)cc2F)cc(Cl)c1O [Example A7, 5-(N-(4-(3-((7-amino-2-(furan-2-yl)-[1,2,4]triazolo[1,5-a][1,3,5]triazin-5-yl)amino)ethyl)-2-fluorophenyl)sulfamoyl)-3-chloro-2-hydroxybenzamide]
70% |  | 81% |  |  | CC(=O)Nc1nc(NCCc2ccc(NS(=O)(=O)c3cc(Cl)c(O)c(C(N)=O)c3)cc2)nc2nc(-c3ccco3)nn12 [Example A8, 5-(N-(4-(2-((7-acetamido-2-(furan-2-yl)-[1,2,4]triazolo[1,5-a][1,3,5]triazin-5-yl)amino)ethyl)phenyl)sulfamoyl)-3-chloro-2-hydroxybenzamide]
98% | > 7.00 |  | > 7.60 | 88% | NC(=O)c1cc(S(=O)(=O)Nc2ccc(CCCNc3nc(N)n4nc(-c5ccco5)nc4n3)cc2)cc(Cl)c1O [Example A11, 5-(N-(4-(3-((7-amino-2-(furan-2-yl)-[1,2,4]triazolo[1,5-a][1,3,5]triazin-5-yl)amino)propyl)phenyl)sulfamoyl)-3-chloro-2-hydroxybenzamide]
99% | > 7.00 | 72% | < 7.30 |  | NC(=O)c1cc(S(=O)(=O)Nc2ccc(CCCOc3nc(N)n4nc(-c5ccco5)nc4n3)cc2)cc(Cl)c1O [Example A12, 5-(N-(4-(3-((7-amino-2-(furan-2-yl)-[1,2,4]triazolo[1,5-a][1,3,5]triazin-5-yl)oxy)propyl)phenyl)sulfamoyl)-3-chloro-2-hydroxybenzamide]
63% |  | 83% |  |  | COc1c(Cl)cc(S(=O)(=O)Nc2ccc(CCCNc3nc(N)n4nc(-c5ccco5)nc4n3)cc2)cc1C(N)=O [Example A16, 5-(N-(4-(3-((7-amino-2-(furan-2-yl)-[1,2,4]triazolo[1,5-a][1,3,5]triazin-5-yl)amino)propyl)phenyl)sulfamoyl)-3-chloro-2-methoxybenzamide]
